Assay results taken from US12583866B2, “Pyrido[2,3-b][1,4]oxazines or tetrahydropyrido[2,3-b][1,4]oxazepines as IAP antagonists” (BEIGENE, LTD., priority 2020, dated 2026).

How the values were obtained:
[1] = molecular target: T1, recombinant human cIAP2-BIR3 protein (Homo sapiens, UniProt Q13489); experiment: Recombinant human c-IAP2-BIR3 biochemical assay (HTRF, peptide displacement); settings: 3.7 nM cIAP2-BIR3, 3.7 nM AbuRPF-K(5-Fam)-NH2 peptide, read-out: Protein binding IC50 (nM) c-IAP2
T1 construct: recombinant human cIAP2-BIR3 protein; purchased Reaction biology APT-11-372
T1 sequence (Q13489 238-349 limits assumed): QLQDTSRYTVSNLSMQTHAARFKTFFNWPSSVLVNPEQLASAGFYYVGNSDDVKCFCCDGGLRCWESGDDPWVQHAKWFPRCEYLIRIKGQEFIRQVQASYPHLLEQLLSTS
How it was run: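 3.7 nM protein pre-incubated 1 h at room temperature with compounds (top 10 uM, 4-fold, 10 points) in 20 mM HEPES pH 7.5, 50 mM NaCl, 0.005% Tween-20, 1 mM DTT. Then 3.7 nM AbuRPF-K(5-Fam)-NH2 for 1 h, then anti-6His Tb cryptate 1 h. IC50 from 520/490 nm HTRF ratio, four-parameter logistic fit.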

[2] = molecular target: T2, recombinant human cIAP1-BIR3 protein (Homo sapiens, UniProt Q13490); experiment: Recombinant human c-IAP1-BIR3 biochemical assay (HTRF, peptide displacement); settings: 1.2 nM cIAP1-BIR3, 3 nM AbuRPF-K(5-Fam)-NH2 peptide, read-out: Protein binding IC50 (nM) c-IAP1
T2 construct: recombinant human cIAP1-BIR3 protein; purchased Reaction biology APT-11-370
T2 sequence (Q13490 253-363 limits assumed): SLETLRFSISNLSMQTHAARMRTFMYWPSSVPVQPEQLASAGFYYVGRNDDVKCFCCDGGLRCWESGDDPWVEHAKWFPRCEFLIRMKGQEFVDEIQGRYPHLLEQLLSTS
How it was run: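 1.2 nM cIAP1-BIR3 preincubated 1 h at room temperature with compound (10 points, 4-fold, top 10 uM) in 20 mM HEPES pH 7.5, 50 mM NaCl, 1 mM DTT; 3 nM AbuRPF-K(5-Fam)-NH2 then added for 1 h, then anti-6His Tb cryptate for 1 h. 520/490 nm ratio; IC50 by four-parameter logistic fit.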

[3] = molecular target: T3, recombinant human XIAP-BIR3 protein (Homo sapiens, UniProt P98170); experiment: Recombinant human XIAP-BIR3 biochemical assay (HTRF, peptide displacement); settings: 3.7 nM XIAP-BIR3, 7.6 nM AbuRPF-K(5-Fam)-NH2 peptide, read-out: Protein binding IC50 (nM) XIAP
T3 construct: recombinant human XIAP-BIR3 protein; purchased Reaction biology APT-11-374
T3 sequence (P98170 241-356 limits assumed): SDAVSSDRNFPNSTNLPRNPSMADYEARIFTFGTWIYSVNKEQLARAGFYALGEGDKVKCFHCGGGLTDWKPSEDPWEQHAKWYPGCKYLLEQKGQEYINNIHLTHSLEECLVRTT
How it was run: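 3.7 nM His-tagged XIAP-BIR3 was preincubated 1 h RT with compound (top 10 µM, 4-fold, 10 points) in 20 mM HEPES pH 7.5, 50 mM NaCl, 0.005% Tween-20, 1 mM DTT. 7.6 nM AbuRPF-K(5-Fam)-NH2 peptide was then added, followed by anti-6His Tb cryptate, 1 h each. HTRF 520/490 nm ratio; four-parameter logistic IC50.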

Row | Structure (SMILES) | IC50 [1] [nM] | IC50 [2] [nM] | IC50 [3] [nM]
1 | C[C@@H]1CN(CC(=O)N2CCOc3ncc(Cc4ccc(F)cc4)cc32)[C@@H](CN2[C@H](C)COC[C@H]2C)CN1 [Compound 16, 2-((2R,5R)-2-(((3R,5R)-3,5-dimethylmorpholino)methyl)-5-methylpiperazin-1-yl)-1-(7-(4-fluorobenzyl)-2,3-dihydro-1H-pyrido[2,3-b][1,4]oxazin-1-yl)ethan-1-one] | 0.85 | 0.34 | 8.4
2 | C[C@@H]1CN(CC(=O)N2c3cc(Cc4ccc(F)cc4)cnc3OC[C@@H]2c2ccccc2)[C@@H](CN2CCOC[C@H]2C)CN1 [Compound 45, 1-((S)-7-(4-fluorobenzyl)-2-phenyl-2,3-dihydro-1H-pyrido[2,3-b][1,4]oxazin-1-yl)-2-((2R,5R)-5-methyl-2-(((R)-3-methylmorpholino)methyl)piperazin-1-yl)ethan-1-one] | 0.65 | 0.34 | 8.5
3 | C[C@@H]1CN(CC(=O)N2c3cc(Cc4ccc(F)cc4)c(C(=O)NC(C)(C)C)nc3OC[C@@H]2C)[C@@H](CN2[C@H](C)COC[C@H]2C)CN1 [Compound 120] | 0.39 | 0.24 | 6.8
4 | C[C@@H]1CN(CC(=O)N2CCOc3nc(Br)c(Cc4ccc(F)cc4)cc32)[C@@H](CN2CCOC[C@H]2C)CN1 [Compound 4, 1-(6-bromo-7-(4-fluorobenzyl)-2,3-dihydro-1H-pyrido[2,3-b][1,4]oxazin-1-yl)-2-((2R,5R)-5-methyl-2-(((R)-3-methylmorpholino)methyl)piperazin-1-yl)ethan-1-one] | 0.92 | 0.5 | 17
5 | CC1CN(C(=O)CN2C[C@@H](C)NC[C@@H]2CN2CCOC[C@H]2C)c2cc(Cc3ccc(F)cc3)c(Br)nc2O1 (stereo partly drawn) [Compound 11, 1-(6-bromo-7-(4-fluorobenzyl)-3-methyl-2,3-dihydro-1H-pyrido[2,3-b][1,4]oxazin-1-yl)-2-((2R,5R)-5-methyl-2-(((R)-3-methylmorpholino)methyl)piperazin-1-yl)ethan-1-one] | 17 | 8 | 220
6 | CCOC[C@H]1COc2ncc(Cc3ccc(F)cc3)cc2N1C(=O)CN1C[C@@H](C)NC[C@@H]1CN1[C@H](C)COC[C@H]1C [Compound 36] | 0.8 | 0.42 | 50
7 | C[C@@H]1CN(CC(=O)N2c3cc(Cc4ccc(F)cc4)c(C(=O)NCC4CCOCC4)nc3OC[C@@H]2C)[C@@H](CN2[C@H](C)COC[C@H]2C)CN1 [Example 77, (S)-1-(2-((2R,5R)-2-(((3R,5R)-3,5-dimethylmorpholino)methyl)-5-methylpiperazin-1-yl)acetyl)-7-(4-fluorobenzyl)-2-methyl-N-((tetrahydro-2H-pyran-4-yl)methyl)-2,3-dihydro-1H-pyrido[2,3-b][1,4]oxazine-6-carboxamide] | 0.28 | 0.2 | 2.6
8 | C[C@@H]1CN(CC(=O)N2c3cc(Cc4ccc(F)cc4)c(C(=O)NC[C@@H]4CCOC4)nc3OC[C@@H]2C)[C@@H](CN2[C@H](C)COC[C@H]2C)CN1 [Compound 95, (S)-1-(2-((2R,5R)-2-(((3R,5R)-3,5-dimethylmorpholino)methyl)-5-methylpiperazin-1-yl)acetyl)-7-(4-fluorobenzyl)-2-methyl-N—(((S)-tetrahydrofuran-3-yl)methyl)-2,3-dihydro-1H-pyrido[2,3-b][1,4]oxazine-6-carboxamide] | 0.25 | 0.19 | 2.3
9 | COC[C@H]1COc2ncc(Cc3ccc(F)cc3)cc2N1C(=O)CN1C[C@@H](C)NC[C@@H]1CN1CCOC[C@H]1C [Compound 35, 1-((S)-7-(4-fluorobenzyl)-2-(methoxymethyl)-2,3-dihydro-1H-pyrido[2,3-b][1,4]oxazin-1-yl)-2-((2R,5R)-5-methyl-2-(((R)-3-methylmorpholino)methyl)piperazin-1-yl)ethan-1-one] | 0.99 | 0.33 | 46
